Drawing on ChEMBL document CHEMBL5465560, “Selectivity Literature for EUbOPEN Chemogenomic Library” (2024), this text covers % of control and % of inhibition for ten compounds.

The target of assay [1] is T1, Serine/threonine-protein kinase D3 (Homo sapiens) (UniProt O94806).
T1 sequence (whole entry): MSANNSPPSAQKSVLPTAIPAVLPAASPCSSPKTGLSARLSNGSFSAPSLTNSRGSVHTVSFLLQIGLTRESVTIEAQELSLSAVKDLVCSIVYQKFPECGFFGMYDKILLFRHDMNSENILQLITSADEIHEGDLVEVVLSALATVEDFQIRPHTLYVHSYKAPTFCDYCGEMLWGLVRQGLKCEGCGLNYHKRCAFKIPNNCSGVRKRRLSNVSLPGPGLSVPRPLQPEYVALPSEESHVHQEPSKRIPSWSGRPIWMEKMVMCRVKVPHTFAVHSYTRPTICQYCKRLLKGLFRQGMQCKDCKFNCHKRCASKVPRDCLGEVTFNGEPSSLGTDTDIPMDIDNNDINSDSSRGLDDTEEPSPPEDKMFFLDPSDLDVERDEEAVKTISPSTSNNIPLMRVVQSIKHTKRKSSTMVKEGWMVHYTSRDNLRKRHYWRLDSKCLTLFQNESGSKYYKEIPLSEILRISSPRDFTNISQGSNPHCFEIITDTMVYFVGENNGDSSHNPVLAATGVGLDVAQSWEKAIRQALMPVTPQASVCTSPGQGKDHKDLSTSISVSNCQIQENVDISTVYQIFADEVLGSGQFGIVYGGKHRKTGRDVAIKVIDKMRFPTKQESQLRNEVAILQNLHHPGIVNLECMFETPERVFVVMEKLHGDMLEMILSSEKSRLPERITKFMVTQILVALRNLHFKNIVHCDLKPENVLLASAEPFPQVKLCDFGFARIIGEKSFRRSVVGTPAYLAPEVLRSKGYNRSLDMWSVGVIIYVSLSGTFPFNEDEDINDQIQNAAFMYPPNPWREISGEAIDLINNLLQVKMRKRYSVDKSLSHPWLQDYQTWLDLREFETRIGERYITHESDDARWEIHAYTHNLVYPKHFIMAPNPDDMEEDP
Kind of assay: Selectivity interaction (Ambit KINOMEscan and KiNATiv profiling in Jurkat cells) EUB0000090b PRKD3. In kind it is cell-based. The note with it: at 1 µM.

Assay [2] deals with Protein-tyrosine kinase 2-beta (Homo sapiens) (UniProt Q14289). Kind of assay: Selectivity interaction (SelectScreen profiling (Invitrogen)) EUB0000607a PTK2B. The note with it: at 2 µM.
Protein-tyrosine kinase 2-beta (Homo sapiens), sequence (Q14289 whole entry, looked up): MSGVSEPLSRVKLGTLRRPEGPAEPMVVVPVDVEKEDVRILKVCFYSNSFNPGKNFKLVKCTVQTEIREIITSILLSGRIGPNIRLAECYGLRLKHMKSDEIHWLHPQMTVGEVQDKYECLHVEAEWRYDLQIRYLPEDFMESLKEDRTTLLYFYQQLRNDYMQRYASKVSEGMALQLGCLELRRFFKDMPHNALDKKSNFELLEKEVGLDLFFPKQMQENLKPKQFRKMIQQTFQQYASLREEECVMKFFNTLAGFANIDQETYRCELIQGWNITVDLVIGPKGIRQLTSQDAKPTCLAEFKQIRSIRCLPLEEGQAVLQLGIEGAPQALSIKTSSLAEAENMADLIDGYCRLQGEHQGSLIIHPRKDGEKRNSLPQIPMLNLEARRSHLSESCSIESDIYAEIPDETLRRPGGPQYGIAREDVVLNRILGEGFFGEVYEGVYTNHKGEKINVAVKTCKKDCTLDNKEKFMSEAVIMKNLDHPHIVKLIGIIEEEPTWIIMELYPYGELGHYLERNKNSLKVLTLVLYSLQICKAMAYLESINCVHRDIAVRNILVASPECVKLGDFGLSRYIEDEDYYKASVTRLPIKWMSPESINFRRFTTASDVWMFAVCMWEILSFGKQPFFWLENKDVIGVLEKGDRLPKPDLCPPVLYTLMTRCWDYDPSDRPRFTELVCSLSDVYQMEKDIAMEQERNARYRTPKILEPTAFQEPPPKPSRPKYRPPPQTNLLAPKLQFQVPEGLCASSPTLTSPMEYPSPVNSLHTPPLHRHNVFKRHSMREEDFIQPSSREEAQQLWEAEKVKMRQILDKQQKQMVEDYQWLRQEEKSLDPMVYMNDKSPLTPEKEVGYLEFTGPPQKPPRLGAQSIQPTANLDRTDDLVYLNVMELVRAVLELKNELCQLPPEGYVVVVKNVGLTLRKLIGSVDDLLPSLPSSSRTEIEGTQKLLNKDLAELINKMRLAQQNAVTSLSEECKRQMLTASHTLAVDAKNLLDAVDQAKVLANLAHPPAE
Assay [3] deals with Ephrin type-A receptor 2 (Homo sapiens) (UniProt P29317). The assay can be described thus: Selectivity interaction (KinomeScan (DiscoverX)) EUB0000607a EPHA2. The note with it: at 10 µM.
For assay [4], the target named is Mitogen-activated protein kinase 3 (Homo sapiens, UniProt P27361). The assay can be described thus: Selectivity interaction (KinomeScan (DiscoverX)) EUB0000607a MAPK3. The note with it: at 10 µM.
Mitogen-activated protein kinase 3, sequence (P27361 whole entry): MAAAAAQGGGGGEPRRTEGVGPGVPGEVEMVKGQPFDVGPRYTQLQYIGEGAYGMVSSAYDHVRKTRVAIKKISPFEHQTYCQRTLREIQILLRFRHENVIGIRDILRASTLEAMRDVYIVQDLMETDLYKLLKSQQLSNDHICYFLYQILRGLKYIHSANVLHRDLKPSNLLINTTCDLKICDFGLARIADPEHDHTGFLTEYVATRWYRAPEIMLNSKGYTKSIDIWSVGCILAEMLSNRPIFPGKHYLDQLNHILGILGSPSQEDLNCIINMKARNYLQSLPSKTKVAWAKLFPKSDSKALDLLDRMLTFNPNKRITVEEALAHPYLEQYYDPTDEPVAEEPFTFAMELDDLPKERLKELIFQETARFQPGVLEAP
The target in assay [5] is Serine/threonine-protein kinase 33 (Homo sapiens) (UniProt Q9BYT3). The following applies: at 10 µM.
Serine/threonine-protein kinase 33 (Homo sapiens), sequence (Q9BYT3 whole entry, looked up): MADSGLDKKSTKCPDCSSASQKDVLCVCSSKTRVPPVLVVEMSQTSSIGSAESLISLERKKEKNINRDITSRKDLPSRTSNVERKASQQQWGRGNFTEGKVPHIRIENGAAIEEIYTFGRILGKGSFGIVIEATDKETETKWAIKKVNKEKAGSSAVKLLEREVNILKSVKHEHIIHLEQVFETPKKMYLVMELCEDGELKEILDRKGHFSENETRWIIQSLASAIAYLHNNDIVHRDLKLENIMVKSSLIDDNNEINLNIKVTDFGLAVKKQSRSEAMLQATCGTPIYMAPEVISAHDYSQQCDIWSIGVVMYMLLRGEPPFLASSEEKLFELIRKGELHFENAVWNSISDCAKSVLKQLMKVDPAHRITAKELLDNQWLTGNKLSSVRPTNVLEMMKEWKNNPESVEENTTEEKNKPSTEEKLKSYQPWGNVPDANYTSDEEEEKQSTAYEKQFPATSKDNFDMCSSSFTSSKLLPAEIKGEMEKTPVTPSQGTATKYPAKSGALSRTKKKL
In assay [6] the target is Platelet-derived growth factor receptor beta (Homo sapiens, UniProt P09619). The assay can be described thus: Selectivity interaction (KinomeScan (DiscoverX)) EUB0000655a PDGFRB. The note with it: at 10 µM.
In assay [7] the target is Eukaryotic translation initiation factor 2-alpha kinase 1 (Homo sapiens) (UniProt Q9BQI3). Kind of assay: Selectivity interaction (KinomeScan (DiscoverX)) EUB0001079a EIF2AK1. The following applies: at 1 µM.
Assay [8] concerns the target T2, Phosphatidylinositol 5-phosphate 4-kinase type-2 gamma (Homo sapiens) (UniProt Q8TBX8).
T2 sequence (whole entry): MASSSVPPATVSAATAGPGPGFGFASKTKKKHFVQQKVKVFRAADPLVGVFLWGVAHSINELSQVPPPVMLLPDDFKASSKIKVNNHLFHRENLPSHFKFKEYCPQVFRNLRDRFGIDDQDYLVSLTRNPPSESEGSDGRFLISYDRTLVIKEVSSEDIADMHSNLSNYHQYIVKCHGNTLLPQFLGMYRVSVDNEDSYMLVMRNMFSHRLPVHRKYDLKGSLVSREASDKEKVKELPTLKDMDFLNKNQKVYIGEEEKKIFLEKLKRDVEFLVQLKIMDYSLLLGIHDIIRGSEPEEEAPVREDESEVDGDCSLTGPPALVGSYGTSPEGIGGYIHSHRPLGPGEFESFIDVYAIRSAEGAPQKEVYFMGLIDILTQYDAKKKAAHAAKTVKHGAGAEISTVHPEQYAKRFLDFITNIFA
Kind of assay: Selectivity interaction (KinomeScan (DiscoverX)) EUB0001079a PIP4K2C. The following applies: at 1 µM.

Assay [9] concerns the target Mitogen-activated protein kinase kinase kinase kinase 4 (Homo sapiens, UniProt O95819). The assay can be described thus: Selectivity interaction (Kinase panel (literature)) EUB0001199aCl MAP4K4. The note with it: at 1 µM.
In assay [10] the target is Serine/threonine-protein kinase Nek7 (Homo sapiens) (UniProt Q8TDX7). The assay can be described thus: Selectivity interaction (Kinase panel (Invitrogen)) EUB0000639a NEK7. The following applies: at 200 nM.
Serine/threonine-protein kinase Nek7 (Homo sapiens), sequence (Q8TDX7 whole entry, looked up): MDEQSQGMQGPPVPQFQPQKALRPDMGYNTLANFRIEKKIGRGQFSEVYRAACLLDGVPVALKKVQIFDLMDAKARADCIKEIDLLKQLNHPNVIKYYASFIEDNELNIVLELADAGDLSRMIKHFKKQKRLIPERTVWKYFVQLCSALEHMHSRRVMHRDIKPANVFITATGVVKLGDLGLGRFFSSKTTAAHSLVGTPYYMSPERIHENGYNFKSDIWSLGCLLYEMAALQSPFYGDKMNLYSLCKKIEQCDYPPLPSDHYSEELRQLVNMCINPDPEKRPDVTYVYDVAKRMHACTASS
The target of assay [11] is Phosphatidylinositol 4-phosphate 5-kinase type-1 alpha (Homo sapiens) (UniProt Q99755). Kind of assay: Selectivity interaction (KinomeScan (DiscoverX)) EUB0000045b PIP5K1A.
Phosphatidylinositol 4-phosphate 5-kinase type-1 alpha (Homo sapiens), sequence (Q99755 whole entry): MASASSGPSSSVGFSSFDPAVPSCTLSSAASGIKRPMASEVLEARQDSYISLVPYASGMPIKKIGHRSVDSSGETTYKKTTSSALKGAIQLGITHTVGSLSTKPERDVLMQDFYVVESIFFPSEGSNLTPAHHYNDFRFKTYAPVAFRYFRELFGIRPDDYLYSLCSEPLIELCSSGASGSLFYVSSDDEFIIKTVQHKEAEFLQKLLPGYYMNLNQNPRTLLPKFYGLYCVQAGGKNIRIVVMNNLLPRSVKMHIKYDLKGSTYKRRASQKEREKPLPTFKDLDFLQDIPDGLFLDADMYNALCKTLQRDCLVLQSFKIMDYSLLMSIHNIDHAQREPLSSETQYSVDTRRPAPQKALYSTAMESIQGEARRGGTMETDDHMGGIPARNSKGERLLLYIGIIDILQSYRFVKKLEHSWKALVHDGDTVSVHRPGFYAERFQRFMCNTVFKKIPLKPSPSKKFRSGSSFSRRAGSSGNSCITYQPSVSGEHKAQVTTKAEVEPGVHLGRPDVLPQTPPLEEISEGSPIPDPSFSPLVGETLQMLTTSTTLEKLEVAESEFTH
Assay [12] has as its target Ribosomal protein S6 kinase alpha-3 (Homo sapiens, UniProt P51812). Kind of assay: Selectivity interaction (KinomeScan (DiscoverX)) EUB0000618a RPS6KA3. The following applies: at 10 µM.
Assay [13] deals with T3, Serine/threonine-protein kinase BRSK1 (Homo sapiens) (UniProt Q8TDC3).
T3 sequence (whole entry): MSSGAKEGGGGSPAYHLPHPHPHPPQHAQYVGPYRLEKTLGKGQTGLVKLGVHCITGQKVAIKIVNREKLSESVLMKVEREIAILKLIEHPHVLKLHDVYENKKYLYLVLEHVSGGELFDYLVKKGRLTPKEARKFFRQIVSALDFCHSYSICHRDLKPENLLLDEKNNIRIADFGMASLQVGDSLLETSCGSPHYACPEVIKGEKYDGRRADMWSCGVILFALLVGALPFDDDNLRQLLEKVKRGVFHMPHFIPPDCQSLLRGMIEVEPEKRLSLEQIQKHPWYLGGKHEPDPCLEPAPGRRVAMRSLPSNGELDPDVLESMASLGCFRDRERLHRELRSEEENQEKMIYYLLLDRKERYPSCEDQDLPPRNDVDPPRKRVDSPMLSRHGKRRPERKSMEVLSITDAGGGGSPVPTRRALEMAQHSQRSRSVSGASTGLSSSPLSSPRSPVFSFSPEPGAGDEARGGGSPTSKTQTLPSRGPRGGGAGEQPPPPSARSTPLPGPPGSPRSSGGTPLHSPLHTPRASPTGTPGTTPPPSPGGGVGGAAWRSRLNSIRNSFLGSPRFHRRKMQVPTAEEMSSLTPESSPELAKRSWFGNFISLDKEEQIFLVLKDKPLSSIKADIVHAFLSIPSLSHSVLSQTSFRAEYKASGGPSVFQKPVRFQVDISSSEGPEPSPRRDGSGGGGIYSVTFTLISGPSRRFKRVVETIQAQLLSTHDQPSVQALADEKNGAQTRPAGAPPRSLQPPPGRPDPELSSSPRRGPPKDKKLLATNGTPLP
The assay can be described thus: Selectivity interaction (Upstate Kinase Profiler service (Millipore)) EUB0000056c BRSK1. The note with it: at 1 µM.

Mitogen-activated protein kinase kinase kinase kinase 4, sequence (O95819 2-1239 limits assumed): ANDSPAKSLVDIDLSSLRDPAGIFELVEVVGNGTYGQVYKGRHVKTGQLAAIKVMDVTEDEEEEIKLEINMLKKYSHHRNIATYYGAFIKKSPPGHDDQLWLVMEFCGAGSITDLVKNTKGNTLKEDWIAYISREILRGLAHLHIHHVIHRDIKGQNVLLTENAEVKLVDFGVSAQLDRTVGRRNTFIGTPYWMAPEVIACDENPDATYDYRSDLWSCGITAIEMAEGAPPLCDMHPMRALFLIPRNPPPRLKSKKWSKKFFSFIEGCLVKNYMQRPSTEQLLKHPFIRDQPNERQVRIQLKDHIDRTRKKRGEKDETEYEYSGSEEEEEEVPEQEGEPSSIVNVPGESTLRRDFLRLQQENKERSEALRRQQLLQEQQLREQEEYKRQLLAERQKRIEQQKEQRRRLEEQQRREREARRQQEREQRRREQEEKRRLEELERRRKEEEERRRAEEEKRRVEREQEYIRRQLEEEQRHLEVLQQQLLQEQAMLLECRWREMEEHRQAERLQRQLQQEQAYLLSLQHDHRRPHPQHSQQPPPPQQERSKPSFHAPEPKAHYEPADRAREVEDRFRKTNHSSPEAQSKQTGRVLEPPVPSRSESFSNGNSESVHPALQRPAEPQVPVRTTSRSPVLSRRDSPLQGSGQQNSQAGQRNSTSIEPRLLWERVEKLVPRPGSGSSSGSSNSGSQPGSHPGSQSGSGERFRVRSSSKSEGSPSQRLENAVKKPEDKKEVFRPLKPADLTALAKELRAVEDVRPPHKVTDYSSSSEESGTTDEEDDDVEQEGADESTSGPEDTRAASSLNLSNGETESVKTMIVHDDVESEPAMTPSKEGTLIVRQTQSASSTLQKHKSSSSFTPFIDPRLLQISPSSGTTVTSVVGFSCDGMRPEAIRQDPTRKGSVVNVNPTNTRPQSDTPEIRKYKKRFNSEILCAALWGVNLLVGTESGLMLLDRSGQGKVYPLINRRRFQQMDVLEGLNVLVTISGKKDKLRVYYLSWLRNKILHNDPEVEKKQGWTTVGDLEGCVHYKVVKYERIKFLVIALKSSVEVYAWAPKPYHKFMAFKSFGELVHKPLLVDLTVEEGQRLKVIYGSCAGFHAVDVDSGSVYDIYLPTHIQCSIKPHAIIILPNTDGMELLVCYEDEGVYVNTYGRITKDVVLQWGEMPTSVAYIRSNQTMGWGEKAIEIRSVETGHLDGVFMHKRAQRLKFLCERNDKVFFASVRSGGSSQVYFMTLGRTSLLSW
Ribosomal protein S6 kinase alpha-3, sequence (P51812 whole entry): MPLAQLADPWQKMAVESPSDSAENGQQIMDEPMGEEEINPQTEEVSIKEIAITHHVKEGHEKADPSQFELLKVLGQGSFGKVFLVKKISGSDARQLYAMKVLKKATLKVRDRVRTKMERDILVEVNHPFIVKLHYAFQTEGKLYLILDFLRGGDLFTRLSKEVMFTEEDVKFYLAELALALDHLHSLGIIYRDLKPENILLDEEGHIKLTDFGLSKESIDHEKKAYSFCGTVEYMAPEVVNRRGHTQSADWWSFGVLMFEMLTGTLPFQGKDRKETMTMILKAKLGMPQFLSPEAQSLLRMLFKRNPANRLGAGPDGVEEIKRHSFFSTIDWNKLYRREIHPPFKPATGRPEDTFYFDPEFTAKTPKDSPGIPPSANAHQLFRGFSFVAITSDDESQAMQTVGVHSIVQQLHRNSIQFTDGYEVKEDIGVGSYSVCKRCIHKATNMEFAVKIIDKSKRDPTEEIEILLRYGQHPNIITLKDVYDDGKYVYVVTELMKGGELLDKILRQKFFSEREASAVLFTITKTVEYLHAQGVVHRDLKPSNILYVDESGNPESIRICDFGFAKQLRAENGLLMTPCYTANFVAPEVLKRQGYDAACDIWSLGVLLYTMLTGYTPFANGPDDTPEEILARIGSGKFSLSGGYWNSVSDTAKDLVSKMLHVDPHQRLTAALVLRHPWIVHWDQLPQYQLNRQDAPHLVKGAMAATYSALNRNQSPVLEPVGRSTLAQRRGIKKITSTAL

Compound `CN(C)C/C=C/C(=O)Nc1ccc(C(=O)N2CCCC(Nc3ncc(Cl)c(-c4c[nH]c5ccccc45)n3)C2)cc1` (centres undefined) registered a % of control in [1] of 33%. Turning to `CNC(=O)Nc1ccc(-c2nc(N3CC4CCC(C3)O4)c3cnn(C4CCC5(CC4)OCCO5)c3n2)cc1`, the % of inhibition in [2] is -3%. The % of control turned out to be 81% in assay [3] and 97% in assay [4]. As for `Cc1cc([C@@H](C)Nc2ccccc2C(=O)O)c2nc(N3CCOCC3)cc(=O)n2c1` [AZD-6482], the % of control in assay [5] came to 100%. As for `CN(C)CCOc1ccc(-c2nc(-c3ccncc3)c(-c3ccc4c(c3)CC/C4=N\O)[nH]2)cc1`, the % of control in assay [6] was 63%. Take `Nc1cnc(N2CCc3cc(S(=O)(=O)Nc4c(F)cc(Cl)cc4F)cc(N4CCCC4=O)c32)nc1` [TP-020n]: the % of control in assay [7] came out at 94%; in assay [8], 100%. Consider `CN1Cc2nccc(-c3cn(C)nc3-c3ccc(F)cc3)c2C1=O`, for which the % of inhibition in assay [9] is 65%. For the compound `CC[C@@H]1[C@H](F)C(=O)N[C@@H]1COc1nccc2cc(C(N)=O)c(OC)cc12` [ZIMLOVISERTIB], the % of inhibition in assay [10] was -1.03%. Take `C=CC(=O)Nc1cc(-n2c(=O)ccc3cnc4ccc(-c5ccc(NS(C)(=O)=O)cc5)cc4c32)ccc1C`: the values for the % of control in assay [11] (at 1 µM) and in [11] (at 10 µM) were 100% and 54%, respectively. For the compound `O[C@H]1CC[C@H](Nc2ncc3nc(Nc4c(F)cc(F)cc4F)n([C@H]4CCOC4)c3n2)CC1`, the % of control in [12] was determined as 60%.

On to `Cc1ccc(-c2ccc3c(ccc4sc5c(c43)NC[C@@H](C)NC5=O)n2)cn1`, for which the % of inhibition in assay [13] is 80%.
